Patent US6686382B2, “Sulfonamides and derivatives thereof that modulate the activity of endothelin” (Encysive Pharmaceuticals Inc., priority 1999, dated 2004)

Key:
human ETA receptors = target: T1, human ETA receptors (Homo sapiens, UniProt P25101); assay: Endothelin binding inhibition, Binding Test #1: inhibition of binding to ETA receptors (TE 671 cell membranes); conditions: relative to N-(4-chloro-3-methyl-5-isoxazolyl)-2-{[3,4-(methylenedioxy)-6-methylphenyl)acetyl]-thiophene-3-sulfonamide (= 1.0)
T1 construct: endogenous in cells; host or cells: TE 671 cells (ATCC HTB 139), membrane preparation
T1 sequence (P25101 21-427): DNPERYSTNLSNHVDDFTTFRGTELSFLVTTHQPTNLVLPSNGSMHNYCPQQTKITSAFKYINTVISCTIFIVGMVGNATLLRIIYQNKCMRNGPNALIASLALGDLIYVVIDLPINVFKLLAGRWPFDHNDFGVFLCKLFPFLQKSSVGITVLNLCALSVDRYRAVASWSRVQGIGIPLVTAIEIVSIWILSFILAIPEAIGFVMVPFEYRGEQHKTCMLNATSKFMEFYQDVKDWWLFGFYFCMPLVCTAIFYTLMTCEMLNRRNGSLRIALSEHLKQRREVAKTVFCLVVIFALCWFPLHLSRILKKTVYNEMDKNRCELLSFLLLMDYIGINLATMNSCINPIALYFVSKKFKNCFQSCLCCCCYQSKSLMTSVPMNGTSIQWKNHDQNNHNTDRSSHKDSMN
Text: (§1) Compounds that are potential endothelin antagonists are identified by testing their ability to compete with ^125I-labeled ET-1 for binding to human ETA receptors or ETB receptors present on isolated cell membranes. The effectiveness of the test compound as an antagonist or agonist of the biological tissue response of endothelin can also be assessed by measuring the effect on endothelin induced contraction of isolated rat thoracic aortic rings. The ability of the compounds to act as antagonists or agonists for ETB receptors can be assess by testing the ability of the compounds are to inhibit endothelin-1 induced prostacyclin release from cultured bovine aortic endothelial cells.
(§2) A. Endothelin Binding Inhibition—Binding Test #1: Inhibition of Binding to ETA Receptors
(§3) TE 671 cells (ATCC Accession No. HTB 139) express ETA receptors. These cells were grown to confluence in T-175 flasks. Cells from multiple flasks were collected by scraping, pooled and centrifugedfor 10 min at 190×g. The cells were resuspended in phosphate buffered saline (PBS) containing 10 mM EDTA using a Tenbroeck homogenizer. The suspension was centrifuged at 4° C. at 57,800×g for 15 min, the pellet was resuspended in 5 ml of buffer A (5 mM HEPES buffer, pH 7.4 containing aprotinin (100 KIU/ml)) and then frozen and thawed once. 5 ml of Buffer B (5 mM HEPES Buffer, pH 7.4 containing 10 mM MnCl2 and 0.001% deoxyribonuclease Type 1) was added, the suspension mixed by inversion and then incubated at 37° C. for 30 minutes. The mixture was centrifuged at 57,800×g as described above, the pellet washed twice with buffer A and then resuspended in buffer C (30 mM HEPES buffer, pH 7.4 containing aprotinin (100 KIU/ml) to give a final protein concentration of 2 mg/ml and stored at −70° C. until use.
(§4) The membrane suspension was diluted with binding buffer (30 mM HEPES buffer, pH 7.4 containing 150 mM NaCl, 5 mM MgCl2, 0.5% Bacitracin) to a concentration of 8 μg/50 μl. ^125I-endothelin-1 (3,000 cpm, […]) was added to 50 μL of either: (A) endothelin-1 (for non specific binding) to give a final concentration 80 nM); (B) binding buffer (for total binding); or (C) a test compound (final concentration 1 nM to 100 μM). The membrane suspension (50 μL), containing up to 8 μg of membrane protein, was added to each of (A), (B), or (C). Mixtures were shaken, and incubated at 4° C. for 16-18 hours, and then centrifuged at 4° C. for 25 min at 2,500×g. Alternatively, the incubation was conducted at 24° C. […] This, must be kept in mind when comparing IC50 concentrations among compounds provided herein.
(§5) The supernatant, containing unbound radioactivity, was decanted and the pellet counted on a Genesys multiwell gamma counter. The degree of inhibition of binding (D) was calculated according to the following equation: [formula]
Each test was generally performed in triplicate.

[1] = tested on: ETA receptors and ETB receptors; assay: Endothelin binding inhibition, ETA (TE 671) and ETB (transfected COS7) receptors: selectivity; set-up: species or system human; conditions: antagonism of ETA receptors over ETB receptors
Text: as §1, §2, §3, §4, §5
B. Endothelin Binding Inhibition—Binding Test #2: Inhibition of Binding to ETB Receptors
COS7 cells were transfected with DNA encoding the ETB receptor, The resulting cells, which express the human ETB receptor, were grown to confluence in T-150 flasks. Membrane was prepared as described above. The binding assay was performed as described above using the membrane preparation diluted with binding buffer to a concentration of 1 μg/50 μl.
Briefly, the COS7 cells, described above, that had been transfected with DNA encoding the ETB receptor and express the human ETB receptor on their surfaces were grown to confluence in T-175 flasks. […]

[2] = Pharmacokinetic properties (oral availability, elimination half-life, Cmax); assay type: in vivo; conditions: for half-life: blood, read-out: t½ elim. (converted)
Text: As used herein, bioavailability or oral availability refers to the rate and extent of absorption. Methods for determining bioavailability or oral availability are well known to those of skill in the art. For example, bioavailability or oral availability of any of the compounds described herein can be determined empirically by administration of the compound to an animal, followed by taking blood samples over time and measuring the blood concentration of the compound. In vivo half life (t1/2) is defined as the time it takes for the concentration of the compound in the blood to be reduced by one-half. Estimations of the area under the curve for intravenous administration can be used to estimate the area under the curve for oral administration, yielding bioavailability data. See, e.g., Milo Gibal (1991) Biopharmaceutics and Pharmacology, 4th edition (Lea and Sediger).

| SMILES | ETA ACTIVITY (ETA antagonist activity relative to reference compound) (human ETA receptors) | Selectivity (IC50 for ETB/IC50 for ETA) [1] | half-life [2] | Cmax ([2]; in vivo) | Oral Availability ([2]; in vivo) | t½ elim. ([2]; in vivo) |
| --- | --- | --- | --- | --- | --- | --- |
| CC(=O)c1cc(C)cc(C)c1NC(=O)c1sccc1S(=O)(=O)Nc1onc(C)c1C [Compound 7, N-(2-acetyl-4,6-dimethylphenyl)-3-{[(3,4 dimethyl-5-isoxazolyl)amino]sulfonyl}-2-thiophenecarboxamide] | 18.1 | 441,000 | 6 h | 157 µg/mL | 148.1% |  |
| Cc1cc(C)c(NC(=O)c2sccc2S(=O)(=O)Nc2onc(C)c2Cl)c(Cl)c1 [Compound 34, N-(2-chloro-4,6-dimethylphenyl)-3-{[(4-chloro-3-methyl-5-isoxazolyl)amino]sulfonyl}2-thiophenecarboxamide] | 20.7 | 166,000 | 2.6 h | 49.5 µg/mL |  |  |
| Cc1cc(C)c(NC(=O)c2sccc2S(=O)(=O)Nc2onc(C)c2Cl)c(S(C)(=O)=O)c1 [Compound 42, 3-{[(4-chloro-3-methyl-5-isoxazolyl)amino]sulfonyl)-N-[2,4-dimethyl-6-(methylsulfonyl)phenyl]-2-thiophenecarboxamide] | 64.1 | 456,000 | 1.5 h | 10.3 µg/mL |  |  |
| Cc1cc2c(cc1CC(=O)c1sccc1S(=O)(=O)Nc1onc(C)c1Cl)OCO2 [N-(4-chloro-3-methyl-5-isoxazolyl)-2-{[3,4-(methylenedioxy)-6-methylphenyl)acetyl]-thiophene-3-sulfonamide, reference compound] | 1.0 | 20,950 |  | 133 µg/mL | 43.6% | 4.5 h |
